From ChEMBL document CHEMBL4000243, “Anti-HSV-1, antioxidant and antifouling phenolic compounds from the deep-sea-derived fungus Aspergillus versicolor SCSIO 41502” (Bioorg Med Chem Lett, 2017)
pEC50, pIC50: −log10 of the molar value. Converted amounts (≈) assume the structure as drawn. The source made the active and inactive calls. No cut-off for these calls is given here.

How the values were obtained:
[1] = test system: Bugula neritina; test: Antifouling activity against Bugula neritina larvae assessed as inhibition of larval settlement at 25 ug/ml after 1 hr by dissecting microscopy relative to control; type: functional
[2] = Antioxidant activity assessed as DPPH radical scavenging activity at 100 ug/ml after 30 mins; type: functional
[3] = Antioxidant activity assessed as DPPH radical scavenging activity after 30 mins; type: functional
[4] = test system: Bugula neritina; test: Selectivity index, ratio of LC50 for Bugula neritina larvae to EC50 for antifouling activity against Bugula neritina larvae
[5] = test system: Human alphaherpesvirus 1; test: Antiviral activity against HSV-1 infected in African green monkey Vero cells by plaque reduction assay; type: functional; conditions: for pEC50: Human alphaherpesvirus 1, Vero
[6] = test system: Bugula neritina; test: Antifouling activity against Bugula neritina assessed as inhibition of larval settlement after 1 hr by dissecting microscopy; type: functional
[7] = Cytotoxicity against African green monkey Vero cells assessed as reduction in cell viability by MTT assay; type: cell-based; conditions: chlorocebus sabaeus
[8] = Antioxidant activity assessed as ABTS radical cation scavenging activity by measuring trolox equivalents by ABTS radical cation decolorization assay; type: functional

Compound | inhibition at 25 µg/mL [1] | Activity [2] | also measured
Cc1cc(O)cc(O)c1 [ORCINOL] | 10 to 38% | < 50% | –
Cc1cc(O)cc(O)c1C(=O)O [ORSELLINIC ACID] | 10 to 38% | < 50% | –
Cc1cc(O)c(Oc2cc(C)cc(O)c2Oc2cc(C)cc(O)c2O)c(O)c1 | 70.6% | 81.3 to 92.8% | pIC50 [3]: 4.60; Selectivity Index [4]: >100; Activity [5]: inactive; EC50 [6]: 5.48 µg/mL (≈ 14.3 µM)
COC(=O)c1c(C)cc(O)cc1O [METHYL ORSELLINATE] | 10 to 38% | < 50% | –
CC(=O)CC[C@H](CO)c1c(O)cc2c(c1O)C(=O)c1c(O)cc(O)cc1C2=O | 10 to 38% | < 50% | Activity [5]: inactive
Cc1cc(O)cc(OC(=O)c2c(C)cc(O)cc2O)c1 [LECANORIN] | 10 to 38% | < 50% | –
CC(=O)CC[C@H](COC(C)=O)c1c(O)cc2c(c1O)C(=O)c1c(O)cc(O)cc1C2=O | 10 to 38% | < 50% | pEC50 [5]: 5.51; CC50 [7]: 65.1 µM
Cc1cc(OC(=O)c2c(C)cc(O)cc2O)cc(O)c1C(=O)O [LECANORIC ACID] | 10 to 38% | < 50% | –
Cc1cc(O)cc(O)c1O | 10 to 38% | 81.3 to 92.8% | pIC50 [3]: 4.45
Cc1cc(O)cc(Oc2cc(C)cc(O)c2)c1 [DIORCINOL] | 10 to 38% | < 50% | –
C[C@]12CCC[C@@H](O1)c1c(cc3c(c1O)C(=O)c1c(O)cc(O)cc1C3=O)O2 | 10 to 38% | < 50% | –
COC(=O)c1c(O)ccc2oc3cc(C)cc(O)c3c(=O)c12 | 10 to 38% | < 50% | –
C[C@H](O)CC[C@H](CO)c1c(O)cc2c(c1O)C(=O)c1c(O)cc(O)cc1C2=O | – | < 50% | pEC50 [5]: 5.20; CC50 [7]: 50.7 µM
O=C1O[C@H]([C@@H](O)CO)C(O)=C1O [ASCORBIC ACID] | – | – | pIC50 [3]: 4.34
O=C1c2cc(O)cc(O)c2C(=O)c2c1cc(O)c([C@@H](CO)CCO)c2O | 10 to 38% | < 50% | –
CCCCCC(c1c(O)cc(C)cc1Oc1cc(C)cc(O)c1)c1c(O)cc2c(c1O)C(=O)c1c(O)cc(O)cc1C2=O (racemic) | – | < 50% | Activity [8]: 2.18 mmol/g; Activity [5]: inactive
COC(=O)c1c(C)cc(Oc2cc(O)cc(C)c2C(=O)O)cc1O | 10 to 38% | < 50% | –
Cc1cc(O)c(Oc2cc(C)cc(Oc3cc(C)cc(O)c3O)c2O)c(O)c1 | 85.3% | 81.3 to 92.8% | pIC50 [3]: 4.72; Selectivity Index [4]: >100; Activity [5]: inactive; EC50 [6]: 1.59 µg/mL (≈ 4.14 µM)

Compound | inhibition at 25 µg/mL [1] | Activity [2] | also measured
Cc1cc(O)cc(Oc2cc(C)cc(O)c2O)c1 [CORDYOL C] | 10 to 38% | 81.3 to 92.8% | pIC50 [3]: 4.28
CCCCC[C@H](OC)c1c(O)cc2c(c1O)C(=O)c1c(O)cc(O)cc1C2=O | 10 to 38% | < 50% | –
CCCCCC(c1c(C)cc(O)cc1O)c1c(O)cc2c(c1O)C(=O)c1c(O)cc(Oc3cc(C)cc(O)c3)cc1C2=O (racemic) [listing 1 of 2 here] | 10 to 38% | – | –
Cc1c(O)cc2cc(C[C@H](C)O)oc(=O)c2c1O | – | < 50% | –
COC(C)CC(=O)Cc1cc(O)c(C)c(O)c1C=O (racemic) | – | < 50% | –
Nc1nc2c(ncn2COCCO)c(=O)[nH]1 [ACYCLOVIR] | – | – | pEC50 [5]: 5.52; CC50 [7]: > 1000 µM
CCCCCC(c1c(C)cc(Oc2cc(C)cc(O)c2)cc1O)c1c(O)cc2c(c1O)C(=O)c1c(O)cc(O)cc1C2=O (stereo in doubt; (-)-7) | – | – | Activity [8]: 1.53 to 2 mmol/g
CCCCCC(c1c(C)cc(Oc2cc(C)cc(O)c2)cc1O)c1c(O)cc2c(c1O)C(=O)c1c(O)cc(O)cc1C2=O (racemic) [listing 1 of 2 here] | – | < 50% | Activity [8]: 2.11 mmol/g; Activity [5]: inactive
Cc1cc(O)cc(Oc2cc(C)c(C(=O)OCC(O)CO)c(O)c2)c1 (racemic) | 91.2% | < 50% | Selectivity Index [4]: >100; EC50 [6]: 1.28 µg/mL (≈ 3.67 µM)
CCCCCC(c1c(C)cc(Oc2cc(C)cc(O)c2)cc1O)c1c(O)cc2c(c1O)C(=O)c1c(O)cc(O)cc1C2=O (racemic) [listing 2 of 2 here] | 10 to 38% | – | –
Cc1cc(O)c(O)c(Oc2cc(C)cc(O)c2Oc2cc(C)cc(O)c2O)c1 | 80% | 81.3 to 92.8% | pIC50 [3]: 4.67; Selectivity Index [4]: >100; Activity [5]: inactive; EC50 [6]: 2.61 µg/mL (≈ 6.79 µM)
Cc1c(O)cc(CC(=O)C[C@H](C)O)c(C=O)c1O | 72.4% | < 50% | Selectivity Index [4]: >100; EC50 [6]: 3.4 µg/mL (≈ 13.5 µM)
CCCCCC(c1c(C)cc(O)cc1O)c1c(O)cc2c(c1O)C(=O)c1c(O)cc(Oc3cc(C)cc(O)c3)cc1C2=O (racemic) [listing 2 of 2 here] | – | < 50% | Activity [8]: 2.27 mmol/g; Activity [5]: inactive
Cc1cc(O)c(Oc2cc(C)cc(O)c2O)c(O)c1 | 10 to 38% | 81.3 to 92.8% | pIC50 [3]: 4.51
CCCCCC(c1c(C)cc(O)cc1O)c1c(O)cc2c(c1O)C(=O)c1c(O)cc(Oc3cc(C)cc(O)c3)cc1C2=O (stereo in doubt; (-)-6) | – | – | Activity [8]: 1.65 mmol/g
CCCCCC(c1c(C)cc(Oc2cc(C)cc(O)c2)cc1O)c1c(O)cc2c(c1O)C(=O)c1c(O)cc(O)cc1C2=O (stereo in doubt; (+)-7) | – | – | Activity [8]: 2.07 mmol/g
CC(=O)CCCC(c1c(C)cc(Oc2cc(C)cc(O)c2)cc1O)c1c(O)cc2c(c1O)C(=O)c1c(O)cc(O)cc1C2=O (racemic) | – | < 50% | Activity [8]: 2.03 mmol/g; pEC50 [5]: 5.33; CC50 [7]: 109 µM
